Assay results reported in PubChem BioAssay (NCI).
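Protocol summary: plate cells (96-well), add compound at 5 concentrations, incubate 48 h, interpolate endpoints linearly. TGI marks complete inhibition of growth.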

Assays:
Experiment in all cases: NCI-60 cell line screen, 48 h
LOX IMVI melanoma = tested on: LOX IMVI melanoma
SK-MEL-5 melanoma = tested on: SK-MEL-5 melanoma
786-0 renal = tested on: 786-0 renal
RPMI-8226 leukemia = tested on: RPMI-8226 leukemia
DU-145 prostate = tested on: DU-145 prostate
EKVX NSCLC = tested on: EKVX NSCLC
UO-31 renal = tested on: UO-31 renal
CCRF-CEM leukemia = tested on: CCRF-CEM leukemia
HL-60(TB) leukemia = tested on: HL-60(TB) leukemia
SF-295 CNS = tested on: SF-295 CNS
HT29 colon = tested on: HT29 colon
NCI-H460 lung = tested on: NCI-H460 lung
HOP-92 NSCLC = tested on: HOP-92 NSCLC
HS 578T breast = tested on: HS 578T breast
HCT-116 colon = tested on: HCT-116 colon
SF-268 CNS = tested on: SF-268 CNS
PC-3 prostate = tested on: PC-3 prostate
SNB-19 CNS = tested on: SNB-19 CNS
OVCAR-5 ovarian = tested on: OVCAR-5 ovarian

Row | SMILES | TGI (LOX IMVI melanoma) [µM] | TGI (SK-MEL-5 melanoma) [µM] | TGI (786-0 renal) [µM] | TGI (RPMI-8226 leukemia) [µM] | TGI (DU-145 prostate) [µM] | TGI (EKVX NSCLC) [µM] | TGI (UO-31 renal) [µM] | TGI (CCRF-CEM leukemia) [µM] | TGI (HL-60(TB) leukemia) [µM] | TGI (SF-295 CNS) [µM] | TGI (HT29 colon) [µM] | TGI (NCI-H460 lung) [µM] | TGI (HOP-92 NSCLC) [µM] | TGI (HS 578T breast) [µM] | TGI (HCT-116 colon) [µM] | TGI (SF-268 CNS) [µM] | TGI (PC-3 prostate) [µM] | TGI (SNB-19 CNS) [µM] | TGI (OVCAR-5 ovarian) [µM]
1 | COC(=O)/C=C1/OC(c2ccc(Br)cc2)=C(Br)C1=O | 8.4 | 19.9 | 6.31 | 6.06 | 25.4 | 32 | 24.4 | 6.22 | 7.87 | 28.9 | 11.3 | 36.6 | 25.2 | 28.1 | 7.75 | 17 | 17.5 | 28.9 | 12.5
2 | CN(C)C(=O)c1nnsc1NN=O | > 100 | > 100 | > 100 | > 100 | > 100 | > 100 | > 100 | > 100 | > 100 | > 100 | > 100 | > 100 | > 100 | > 100 | > 100 | > 100 | > 100 | > 100 | > 100
3 | O=C(O)c1cnccc1-c1cc(=O)[nH]n1-c1ccccc1 | > 100 | > 100 | > 100 | > 100 | > 100 | > 100 | > 100 | > 100 | > 87 | > 63.8 | > 67.1 | > 100 | > 100 | > 100 | > 100 | > 100 | > 100 | > 100 | > 100
4 | C/C(=N/NC(=S)N1CCCCCC1)c1ccccc1O | > 78.7 | > 37.7 | 39.3 | 40.4 | > 69.4 | > 100 | > 88.3 | > 30.8 | 7.8 | > 100 | 39.7 | 25.2 | > 100 | > 100 | > 100 | > 24.5 | > 100 | > 100 | > 100
5 | COc1ccc(-c2cn3c(nc4ccccc43)c(C)n2)cc1 | > 100 | > 100 | > 100 | > 100 | > 100 | > 100 | > 64.6 | > 100 | > 100 | > 100 | > 100 | > 100 | > 100 | > 100 | > 100 | > 100 | > 100 | > 100 | > 100
6 | C=CC1(c2ccc(Cl)c(Cl)c2)OCCO1 | > 100 | > 100 | > 100 | > 100 | > 100 | > 100 | > 100 | > 100 | 67.5 | > 100 | > 100 | > 100 | > 100 | > 100 | > 100 | > 100 | > 100 | > 100 | > 100
7 | NNC(=O)CC(=O)Nc1ccc(C(=O)O)cc1 | > 100 | > 100 | > 100 | > 100 | > 100 | > 100 | > 100 | > 100 | > 100 | > 100 | > 100 | > 100 | > 100 | > 100 | > 100 | > 100 | > 100 | > 100 | > 100
8 | NC(=O)ON=C1CCN(Cc2ccccc2)CC1 | > 100 | > 100 | > 100 | > 100 | > 100 | > 100 | > 100 | > 100 | > 100 | > 100 | > 100 | > 100 | > 100 | > 100 | > 100 | > 100 | > 100 | > 100 | > 100
9 | CCOC(=O)c1ccc(-c2cccs2)n1C | > 100 | > 100 | > 100 | > 100 | > 100 | > 100 | > 100 | > 100 | > 100 | > 100 | > 100 | > 100 | > 94.8 | > 100 | > 100 | > 100 | > 100 | > 100 | > 100
10 | COc1cc(/C=C2\N=C(c3ccccc3)N(c3nc4c(Cl)cc(Cl)cc4s3)C2=O)ccc1O | 53.6 | > 100 | > 100 | 47.4 | > 100 | > 100 | 69 | 30.4 | 39.7 | > 100 | 78.5 | > 100 | 68 | 57.2 | 59.7 | > 100 | 38.3 | > 100 | > 100
